Measurements: PubChem BioAssay (NCI)
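Five compound concentrations were applied to cells in 96-well plates for 48 hours; endpoints were derived by simple linear interpolation of the resulting dose-response curve. The concentration for 50% growth inhibition is given as GI50. Definition used: TGI = concentration required for complete inhibition of growth.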

Key:
Test in all cases: NCI-60 cell line screen, 48 h
HL-60(TB) leukemia = system: HL-60(TB) leukemia
SK-MEL-2 melanoma = system: SK-MEL-2 melanoma
MALME-3M melanoma = system: MALME-3M melanoma
NCI-H460 lung = system: NCI-H460 lung
OVCAR-8 ovarian = system: OVCAR-8 ovarian
HCT-15 colon = system: HCT-15 colon
SNB-75 CNS = system: SNB-75 CNS
MDA-MB-435 = system: MDA-MB-435
MDA-MB-231 breast = system: MDA-MB-231 breast
CAKI-1 renal = system: CAKI-1 renal
PC-3 prostate = system: PC-3 prostate
HT29 colon = system: HT29 colon
RXF 393 renal = system: RXF 393 renal
SF-268 CNS = system: SF-268 CNS
U251 CNS = system: U251 CNS
HS 578T breast = system: HS 578T breast
COLO 205 colon = system: COLO 205 colon
A498 renal = system: A498 renal
K-562 leukemia = system: K-562 leukemia
OVCAR-4 ovarian = system: OVCAR-4 ovarian
SR leukemia = system: SR leukemia
MOLT-4 leukemia = system: MOLT-4 leukemia
KM12 colon = system: KM12 colon
UO-31 renal = system: UO-31 renal
SK-MEL-28 melanoma = system: SK-MEL-28 melanoma
SF-539 CNS = system: SF-539 CNS
EKVX NSCLC = system: EKVX NSCLC
786-0 renal = system: 786-0 renal
OVCAR-3 ovarian = system: OVCAR-3 ovarian
UACC-257 melanoma = system: UACC-257 melanoma
NCI/ADR-RES ovarian = system: NCI/ADR-RES ovarian
RPMI-8226 leukemia = system: RPMI-8226 leukemia
UACC-62 melanoma = system: UACC-62 melanoma
A549 NSCLC = system: A549 NSCLC
NCI-H522 lung = system: NCI-H522 lung
TK-10 renal = system: TK-10 renal
SNB-19 CNS = system: SNB-19 CNS
SW-620 colon = system: SW-620 colon
LOX IMVI melanoma = system: LOX IMVI melanoma
IGROV1 ovarian = system: IGROV1 ovarian
SK-MEL-5 melanoma = system: SK-MEL-5 melanoma
NCI-H23 lung = system: NCI-H23 lung
T-47D breast = system: T-47D breast
SN12C renal = system: SN12C renal
NCI-H226 lung = system: NCI-H226 lung
MCF7 breast = system: MCF7 breast
BT-549 breast = system: BT-549 breast
CCRF-CEM leukemia = system: CCRF-CEM leukemia
ACHN renal = system: ACHN renal
DU-145 prostate = system: DU-145 prostate
SK-OV-3 ovarian = system: SK-OV-3 ovarian
HCC-2998 colon = system: HCC-2998 colon
SF-295 CNS = system: SF-295 CNS
M14 melanoma = system: M14 melanoma
HCT-116 colon = system: HCT-116 colon
HOP-62 NSCLC = system: HOP-62 NSCLC
HOP-92 NSCLC = system: HOP-92 NSCLC
OVCAR-5 ovarian = system: OVCAR-5 ovarian

## CCOC(=O)/C=C(\C)Sc1cc(O)c2ccccc2c1O
HL-60(TB) leukemia
  TGI: 88.7 µM
SK-MEL-2 melanoma
  TGI: 50.5 µM
MALME-3M melanoma
  TGI: 29.1 µM
NCI-H460 lung
  TGI: 44.6 µM
OVCAR-8 ovarian
  TGI: 42.4 µM
HCT-15 colon
  TGI: 37.8 µM
SNB-75 CNS
  TGI: 23.8 µM
MDA-MB-435
  TGI: 5.8 µM
MDA-MB-231 breast
  TGI: 44.2 µM
CAKI-1 renal
  TGI: 46.8 µM
PC-3 prostate
  TGI: 67.2 µM
HT29 colon
  TGI: 42.9 µM
RXF 393 renal
  TGI: 31.9 µM
SF-268 CNS
  TGI: 25 µM
U251 CNS
  TGI: 40.9 µM
HS 578T breast
  TGI: > 100 µM
COLO 205 colon
  TGI: 35.1 µM
A498 renal
  TGI: 41.1 µM
K-562 leukemia
  TGI: > 100 µM
OVCAR-4 ovarian
  TGI: 32 µM
SR leukemia
  TGI: > 100 µM
MOLT-4 leukemia
  TGI: > 100 µM
KM12 colon
  TGI: 75.4 µM
UO-31 renal
  TGI: 18.9 µM
SK-MEL-28 melanoma
  TGI: 30.4 µM
SF-539 CNS
  TGI: 45 µM
EKVX NSCLC
  TGI: 81.9 µM
786-0 renal
  TGI: 44.2 µM
OVCAR-3 ovarian
  TGI: > 100 µM
UACC-257 melanoma
  TGI: 35.6 µM
NCI/ADR-RES ovarian
  TGI: 86.7 µM
RPMI-8226 leukemia
  TGI: > 100 µM
UACC-62 melanoma
  TGI: 60.1 µM
A549 NSCLC
  TGI: 85.9 µM
NCI-H522 lung
  TGI: 24.9 µM
TK-10 renal
  TGI: 53.8 µM
SNB-19 CNS
  TGI: 34.1 µM
SW-620 colon
  TGI: > 100 µM
LOX IMVI melanoma
  TGI: 92.2 µM
IGROV1 ovarian
  TGI: 27.7 µM
SK-MEL-5 melanoma
  TGI: 26.6 µM
NCI-H23 lung
  TGI: > 100 µM
T-47D breast
  TGI: 9.9 µM
SN12C renal
  TGI: 83.5 µM
NCI-H226 lung
  TGI: 61.3 µM
MCF7 breast
  TGI: 65.6 µM
BT-549 breast
  TGI: 40.9 µM
CCRF-CEM leukemia
  TGI: > 100 µM
ACHN renal
  TGI: 29.7 µM
DU-145 prostate
  TGI: > 100 µM
SK-OV-3 ovarian
  TGI: 66.4 µM
HCC-2998 colon
  TGI: 28.1 µM
SF-295 CNS
  TGI: 51.6 µM
M14 melanoma
  TGI: 52.5 µM
HCT-116 colon
  TGI: > 100 µM
HOP-62 NSCLC
  TGI: 39.8 µM
HOP-92 NSCLC
  TGI: 62.4 µM
OVCAR-5 ovarian
  TGI: 54.3 µM

## CC(C)c1ccc(COCc2cc(CN3CCCC3)c(O)c3ncccc23)cc1
HL-60(TB) leukemia
  GI50: 0.314 µM
  TGI: 1.4 µM
SK-MEL-2 melanoma
  GI50: 1.61 µM
  TGI: 4.53 µM
MALME-3M melanoma
  GI50: 1.45 µM
  TGI: 8.12 µM
NCI-H460 lung
  GI50: 0.395 µM
  TGI: 1.47 µM
OVCAR-8 ovarian
  GI50: 0.43 µM
  TGI: 2.15 µM
HCT-15 colon
  GI50: 0.0655 µM
  TGI: 2.07 µM
SNB-75 CNS
  GI50: 1.19 µM
  TGI: 11.5 µM
MDA-MB-435
  GI50: 0.855 µM
  TGI: 11.2 µM
MDA-MB-231 breast
  GI50: 0.774 µM
  TGI: 3.27 µM
CAKI-1 renal
  GI50: 0.146 µM
  TGI: 4.44 µM
PC-3 prostate
  GI50: 0.657 µM
  TGI: 11.2 µM
HT29 colon
  GI50: 2.64 µM
  TGI: 6.83 µM
RXF 393 renal
  GI50: 0.878 µM
  TGI: 3.45 µM
SF-268 CNS
  GI50: 0.673 µM
  TGI: 7.98 µM
U251 CNS
  GI50: 0.466 µM
  TGI: 2.45 µM
HS 578T breast
  GI50: 1.72 µM
  TGI: 7.54 µM
COLO 205 colon
  GI50: 3.34 µM
  TGI: 11.9 µM
A498 renal
  GI50: 0.778 µM
  TGI: 3.81 µM
K-562 leukemia
  GI50: 0.374 µM
  TGI: 2.44 µM
OVCAR-4 ovarian
  GI50: 0.32 µM
  TGI: 1.41 µM
SR leukemia
  GI50: 0.323 µM
  TGI: 2.08 µM
MOLT-4 leukemia
  GI50: 0.378 µM
  TGI: 2.13 µM
KM12 colon
  GI50: 0.534 µM
  TGI: 3.13 µM
UO-31 renal
  GI50: 0.127 µM
  TGI: 2.14 µM
SK-MEL-28 melanoma
  GI50: 0.768 µM
  TGI: 10.2 µM
SF-539 CNS
  GI50: 0.42 µM
  TGI: 2.04 µM
EKVX NSCLC
  GI50: 0.746 µM
  TGI: 11.9 µM
786-0 renal
  GI50: 0.468 µM
  TGI: 3.83 µM
OVCAR-3 ovarian
  GI50: 0.403 µM
  TGI: 1.87 µM
UACC-257 melanoma
  GI50: 0.783 µM
  TGI: 3.93 µM
NCI/ADR-RES ovarian
  GI50: 0.0508 µM
  TGI: 0.84 µM
RPMI-8226 leukemia
  GI50: 0.601 µM
  TGI: 2.72 µM
UACC-62 melanoma
  GI50: 0.318 µM
  TGI: 1.62 µM
A549 NSCLC
  GI50: 0.645 µM
  TGI: 8.31 µM
NCI-H522 lung
  GI50: 0.287 µM
  TGI: 1.11 µM
TK-10 renal
  GI50: 0.409 µM
  TGI: 12.6 µM
SNB-19 CNS
  GI50: 0.772 µM
  TGI: 5.7 µM
SW-620 colon
  GI50: 0.471 µM
  TGI: 2.38 µM
LOX IMVI melanoma
  GI50: 0.334 µM
  TGI: 1.4 µM
IGROV1 ovarian
  GI50: 0.493 µM
  TGI: 4.36 µM
SK-MEL-5 melanoma
  GI50: 0.302 µM
  TGI: 1.15 µM
NCI-H23 lung
  GI50: 0.708 µM
  TGI: 3.13 µM
T-47D breast
  GI50: 0.398 µM
  TGI: 4.37 µM
SN12C renal
  GI50: 0.825 µM
  TGI: 4.6 µM
NCI-H226 lung
  GI50: 0.912 µM
  TGI: 3.19 µM
MCF7 breast
  GI50: 0.365 µM
  TGI: 1.52 µM
BT-549 breast
  GI50: 1.45 µM
  TGI: 8.57 µM
CCRF-CEM leukemia
  GI50: 0.398 µM
  TGI: 3.91 µM
ACHN renal
  GI50: 0.149 µM
  TGI: 5.44 µM
DU-145 prostate
  GI50: 0.77 µM
  TGI: 9.72 µM
SK-OV-3 ovarian
  GI50: 0.639 µM
  TGI: 4.53 µM
HCC-2998 colon
  GI50: 1.58 µM
  TGI: 6.03 µM
SF-295 CNS
  GI50: 1.18 µM
  TGI: 6.26 µM
M14 melanoma
  GI50: 0.351 µM
  TGI: 1.99 µM
HCT-116 colon
  GI50: 0.348 µM
  TGI: 1.47 µM
HOP-62 NSCLC
  GI50: 0.367 µM
  TGI: 5.04 µM
HOP-92 NSCLC
  GI50: 1.67 µM
  TGI: 11.7 µM
OVCAR-5 ovarian
  GI50: 1.43 µM
  TGI: 13.5 µM
